In assay [1] the test system is Lepeophtheirus salmonis. Kind of assay: Copepod (Lepeophtheirus salmonis) BioAssay. The assay is classed as in vivo. Particulars: pre-adult/adult salmon lice exposed for 24 hours in sea water. The procedure: Copepod (Lepeophtheirus salmonis) BioAssay
Two Formula (1) compounds were dissolved in sea water. Negative control was sea water and positive control was emamectin benzoate. Ten pre-adult/adult salmon lice were exposed for 24 hours. Lice were monitored for motility and endpoint data was recorded as an Effective Concentration 100% (EC^100) based on immotility.

For assay [2], the system named is Ctenocephalides felis. Kind of assay: Flea (Ctenocephalides felis) Membrane Feed Assay-Adult. The assay is classed as in vivo. The procedure:
Flea (Ctenocephalides felis) Membrane Feed Assay-Adult
Comparative Data: Flea Feed Assay
Comparator compounds T1 and T2 were tested in the flea feed assay, as described above, and are compared to Examples 39 and 43, respectively. The compounds T1 (WO2008/122375) and T2 (US2009/0156643) represent the closet exemplified art. The data represents the 24 hour time period. Endpoint data were recorded as an lethal dose 90% (LD^90) in μg/mL. […] Comparator compounds T1 and T2 both had LD^90 values of >30 […].

The mark [3] stands for this setting: comparative data, flea feed assay, 24 hour time period.

This note sets out measurements from patent US8415310B2, “Isoxazoline derivatives as antiparasitic agents” (AH USA 42 LLC, priority 2010, dated 2013).

For `O=C(CC(F)(F)F)N1CC(F)(c2ccc(C3=NOC(c4cc(Cl)c(F)c(Cl)c4)(C(F)(F)F)C3)cc2)C1` (racemic) [Example 19, 1-(3-(4-(5-(3,5-dichloro-4-fluorophenyl)-5-(trifluoromethyl)-4,5-dihydroisoxazol-3-yl)phenyl)-3-fluoroazetidin-1-yl)-3,3,3-trifluoropropan-1-one], the “Effective Concentration 100% (EC^100) based on immotility” value in assay [1] was 50 ppb. The same measure, in the same setting: for `CC(C)C(=O)N1CC(F)(c2ccc(C3=NOC(c4cc(Cl)c(F)c(Cl)c4)(C(F)(F)F)C3)cc2)C1` (single isomer, unassigned) [Example 177, 5-(3,5-dichloro-4-fluorophenyl)-3-[4-(3-fluoro-1-isobutyrylazetidin-3-yl)phenyl]-5-(trifluoromethyl)-4,5-dihydroisoxazole] the value was 50 ppb.

With `O=C(NC1CC1)N1CC(F)(c2ccc(C3=NOC(c4cc(Cl)cc(Cl)c4)(C(F)(F)F)C3)cc2)C1` (centres unmarked) [Example 10, N-cyclopropyl-3-(4-(5-(3,5-dichlorophenyl)-5-(trifluoromethyl)-4,5-dihydroisoxazol-3-yl)phenyl)-3-fluoroazetidine-1-carboxamide], the “lethal dose 90% (LD^90)” value in assay [2] (adult fleas fed on treated citrated bovine blood approximately 2 hours, knockdown and/or death at approximately 2 and 24 hours) was at most 0.03 µg/mL. In the case of `CC(=O)N1CC(F)(c2ccc(C3=NOC(c4cc(Cl)cc(Cl)c4)(C(F)(F)F)C3)cc2)C1` (centres unmarked) [Example 39, 1-(3-(4-(5-(3,5-Dichlorophenyl)-5-(trifluoromethyl)-4,5-dihydroisoxazol-3-yl)phenyl)-3-fluoroazetidin-1-yl)ethanone], the “lethal dose 90% (LD^90)” value in assay [2] (setting [3]) was at most 3 µg/mL. As for `O=C(CC(F)(F)F)N1CC(F)(c2ccc(C3=NOC(c4cc(Cl)cc(Cl)c4)(C(F)(F)F)C3)cc2)C1` (centres unmarked) [Example 43, 1-(3-(4-(5-(3,5-Dichlorophenyl)-5-(trifluoromethyl)-4,5-dihydroisoxazol-3-yl)phenyl)-3-fluoroazetidin-1-yl)-3,3,3-trifluoropropan-1-one], the “lethal dose 90% (LD^90)” value in assay [2] (setting [3]) was at most 1 µg/mL.
